Test systems include CCRF-CEM; LOX IMVI; OVCAR-5; NCI/ADR-RES; K562; EKVX; IGROV-1; KM12; SF-539; HCC 2998; Malme-3M; HL-60; NCI-H522; ACHN; TK-10; SNB-19; SF-268; BT-549; PC-3.
Holding throughout (assay): growth of human tumour cells (NCI), 48 h

The structures appear in SMILES notation.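 Dose response: 5 concentrations. Exposure: 48 h. Format: 96-well plates. Endpoint: linear interpolation; highest concentration if not reached. GI50 is the concentration that inhibits growth by half.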 Active and inactive are the calls of the source. Rule as the data show it: active = GI50 up to about 1.1 µM and inactive = higher.

In the case of `c1ccc(/N=C2\SC(c3ccccc3)CN2C23CC4CC(CC(C4)C2)C3)cc1` (stereo not drawn), the GI50 in the experiment with CCRF-CEM, in the experiment on LOX IMVI, in the experiment with OVCAR-5, in the experiment with NCI/ADR-RES, in the experiment with K562 and in the experiment with EKVX was > 100 µM (inactive) throughout. The GI50 in the experiment on IGROV-1, in the experiment on KM12, with SF-539, with HCC 2998, in the experiment on Malme-3M and with HL-60 was > 100 µM (inactive) throughout. For the same compound, the GI50 in the experiment with NCI-H522, in the experiment on ACHN, with TK-10, in the experiment with SNB-19, with SF-268 and with BT-549 was > 100 µM (inactive) each time. Also, the GI50 in the experiment on PC-3 was > 100 µM (inactive).

For `CC(CC[C@@]1(O)OC2C[C@H]3[C@@H]4CC[C@H]5CC(OC6OC(CO)C(OC7OC(CO)C(O)C(OC8OCC(O)C(O)C8O)C7OC7OC(CO)C(O)C(O)C7O)C(O)C6O)[C@H](O)CC5(C)[C@H]4CCC3(C)C2[C@@H]1C)COC1OC(CO)C(O)C(O)C1O` (stereo partly drawn), the GI50 with CCRF-CEM is 3.26 µM (inactive); with LOX IMVI, 8.97 µM (inactive); in the experiment on OVCAR-5, 11.7 µM (inactive); in the experiment on NCI/ADR-RES it was 6.65 µM (inactive); in the experiment with K562, 16.6 µM (inactive); with EKVX it was 2.38 µM (inactive). Besides, the GI50 in the experiment with IGROV-1 is 11.3 µM (inactive); with KM12, 15.3 µM (inactive); with SF-539, 3.73 µM (inactive); in the experiment with HCC 2998, 13.8 µM (inactive); with Malme-3M, 15.2 µM (inactive); in the experiment with HL-60, 6.9 µM (inactive). In addition, the GI50 in the experiment with NCI-H522 was 2.87 µM (inactive); in the experiment on ACHN, 2.09 µM (inactive); in the experiment on TK-10, 2.39 µM (inactive); with SNB-19, 28.3 µM (inactive); in the experiment on SF-268 it was 2.48 µM (inactive); in the experiment on BT-549, 1.76 µM (inactive). In addition, the GI50 with PC-3 was 10.3 µM (inactive).

`C[C@]12CC[C@H]3[C@@H](CCC4=CC(=O)CC[C@@]43C)[C@@H]1CC[C@@H]2C(=O)Nc1ccc([N+](=O)[O-])c(C(F)(F)F)c1`: the GI50 with CCRF-CEM is 24.7 µM (inactive); in the experiment with LOX IMVI, 15.8 µM (inactive); in the experiment on OVCAR-5 it was > 10 µM (inactive); in the experiment with NCI/ADR-RES it was 13.3 µM (inactive); with K562, 26.6 µM (inactive); in the experiment with EKVX, 13.4 µM (inactive). The GI50 in the experiment with IGROV-1 was 22.8 µM (inactive); in the experiment on KM12, 16 µM (inactive); in the experiment on SF-539, 18.7 µM (inactive); with HCC 2998, 12.9 µM (inactive); in the experiment on Malme-3M, 15.6 µM (inactive); with HL-60, 39.4 µM (inactive). Moreover, the GI50 in the experiment with NCI-H522 is 17.2 µM (inactive); in the experiment with ACHN, 18.7 µM (inactive); with TK-10 it was 19 µM (inactive); in the experiment on SNB-19, 18.5 µM (inactive); with SF-268, 21.4 µM (inactive); in the experiment with BT-549, 19.4 µM (inactive). The GI50 in the experiment on PC-3 is 19.6 µM (inactive).

On to `NS(=O)(=O)c1ccc(/N=N/c2nc3[nH]cnc(=S)c3[nH]2)cc1`, for which the GI50 with CCRF-CEM is 0.0902 µM (active); in the experiment with LOX IMVI, 0.236 µM (active); in the experiment with OVCAR-5 it was 0.759 µM (active); with NCI/ADR-RES, 0.365 µM (active); in the experiment with K562, 0.3 µM (active); with EKVX it was 2.21 µM (inactive). Further, the GI50 is 7.29 µM (inactive) with IGROV-1; 4.1 µM (inactive) in the experiment on KM12; 3.92 µM (inactive) in the experiment on SF-539; 0.682 µM (active) with HCC 2998; 1.93 µM (inactive) in the experiment on Malme-3M; 2.77 µM (inactive) with HL-60. The GI50 in the experiment with NCI-H522 is 0.887 µM (active); in the experiment on ACHN it was 3.1 µM (inactive); with TK-10 it was 0.474 µM (active); in the experiment with SNB-19, > 100 µM (inactive); with SF-268, 0.885 µM (active); with BT-549 it was 1.3 µM (inactive). Also, in the experiment with PC-3, the GI50 is 3.73 µM (inactive).

As to `CCCCCCCCCCCCCCCC(=O)Nc1ccn(C2CCC(COP(=O)(O)OCC3OC(n4cc(F)c(=O)[nH]c4=O)CC3OC(C)=O)O2)c(=O)n1` (stereo not drawn), the GI50 in the experiment on CCRF-CEM was 1.47 µM (inactive); with LOX IMVI, 7.1 µM (inactive); with OVCAR-5, 34 µM (inactive); with NCI/ADR-RES, 16.7 µM (inactive); in the experiment on K562, 6.15 µM (inactive); in the experiment with EKVX, 28.8 µM (inactive). In addition, the GI50 in the experiment with IGROV-1 is 20.5 µM (inactive); in the experiment with KM12, 16.6 µM (inactive); with SF-539, 1.03 µM (active); in the experiment with HCC 2998, 3.01 µM (inactive); in the experiment with Malme-3M it was 15.6 µM (inactive); in the experiment on HL-60 it was 11.2 µM (inactive). Further, the GI50 was 12.3 µM (inactive) with NCI-H522; 3.14 µM (inactive) with ACHN; 24.4 µM (inactive) in the experiment on TK-10; 3.66 µM (inactive) in the experiment on SNB-19; 1.45 µM (inactive) in the experiment on SF-268; 2.39 µM (inactive) in the experiment on BT-549. The GI50 in the experiment on PC-3 is 15.5 µM (inactive).

As to `CC/C=N\N1C(N)=C(C#N)C(C#N)(C#N)C1CC` (stereo not drawn), the GI50 in the experiment on CCRF-CEM was 36.1 µM (inactive); in the experiment on LOX IMVI it was 49 µM (inactive); with OVCAR-5 it was > 100 µM (inactive); in the experiment on NCI/ADR-RES, 92 µM (inactive); with K562 it was 52.7 µM (inactive); in the experiment on EKVX, > 100 µM (inactive). Moreover, the GI50 in the experiment with IGROV-1 is 63.1 µM (inactive); with KM12 it was > 100 µM (inactive); with SF-539, 26.2 µM (inactive); in the experiment with HCC 2998, > 100 µM (inactive); with Malme-3M, > 100 µM (inactive); in the experiment on HL-60 it was 35.8 µM (inactive). In addition, the GI50 in the experiment on NCI-H522, in the experiment on ACHN, in the experiment with TK-10, in the experiment with SNB-19, with SF-268 and with BT-549 was > 100 µM (inactive) in each case. Also, the GI50 in the experiment on PC-3 is > 100 µM (inactive).

As to `NC(=O)c1nnc2c(F)cccc2c1N`, the GI50 with CCRF-CEM is 28.7 µM (inactive); in the experiment with LOX IMVI, 52 µM (inactive); in the experiment on OVCAR-5, > 100 µM (inactive); in the experiment with NCI/ADR-RES, > 100 µM (inactive); with K562 it was 55.1 µM (inactive); in the experiment with EKVX, > 100 µM (inactive). Moreover, the GI50 in the experiment on IGROV-1 was > 100 µM (inactive); in the experiment on KM12 it was > 100 µM (inactive); in the experiment on SF-539, > 100 µM (inactive); in the experiment on HCC 2998 it was 93.1 µM (inactive); in the experiment on Malme-3M, > 100 µM (inactive); with HL-60, > 100 µM (inactive). Further, the GI50 in the experiment with NCI-H522 is 21.9 µM (inactive); with ACHN, > 100 µM (inactive); in the experiment on TK-10, > 100 µM (inactive); in the experiment with SNB-19, > 100 µM (inactive); with SF-268 it was > 100 µM (inactive); with BT-549, 58.9 µM (inactive). Also, in the experiment with PC-3, the GI50 was > 100 µM (inactive).

Values taken from ChEMBL document CHEMBL1201862, “PubChem BioAssay data set” (2004).
